Assay [1] deals with T1, WT B‐RAF (Homo sapiens, UniProt P15056, V600E).
T1 construct: gene BRAF; overexpressed in HEK293 cells, immunoprecipitated
The assay can be described thus: TR-FRET kinase assay, MEK1 (K97R) substrate. Format: biochemical.

The target of a further assay is T2, WT C‐RAF (Homo sapiens, UniProt P04049).
T2 construct: gene RAF1; overexpressed in HEK293 cells, immunoprecipitated
The assay can be described thus: TR-FRET kinase assay, MEK1 (K97R) substrate. Format: biochemical.

The target in assay [2] is T3, WT B‐RAF (Homo sapiens, UniProt P15056).
T3 construct: gene BRAF; overexpressed in HEK293 cells, immunoprecipitated
T3 sequence (P15056 2-766): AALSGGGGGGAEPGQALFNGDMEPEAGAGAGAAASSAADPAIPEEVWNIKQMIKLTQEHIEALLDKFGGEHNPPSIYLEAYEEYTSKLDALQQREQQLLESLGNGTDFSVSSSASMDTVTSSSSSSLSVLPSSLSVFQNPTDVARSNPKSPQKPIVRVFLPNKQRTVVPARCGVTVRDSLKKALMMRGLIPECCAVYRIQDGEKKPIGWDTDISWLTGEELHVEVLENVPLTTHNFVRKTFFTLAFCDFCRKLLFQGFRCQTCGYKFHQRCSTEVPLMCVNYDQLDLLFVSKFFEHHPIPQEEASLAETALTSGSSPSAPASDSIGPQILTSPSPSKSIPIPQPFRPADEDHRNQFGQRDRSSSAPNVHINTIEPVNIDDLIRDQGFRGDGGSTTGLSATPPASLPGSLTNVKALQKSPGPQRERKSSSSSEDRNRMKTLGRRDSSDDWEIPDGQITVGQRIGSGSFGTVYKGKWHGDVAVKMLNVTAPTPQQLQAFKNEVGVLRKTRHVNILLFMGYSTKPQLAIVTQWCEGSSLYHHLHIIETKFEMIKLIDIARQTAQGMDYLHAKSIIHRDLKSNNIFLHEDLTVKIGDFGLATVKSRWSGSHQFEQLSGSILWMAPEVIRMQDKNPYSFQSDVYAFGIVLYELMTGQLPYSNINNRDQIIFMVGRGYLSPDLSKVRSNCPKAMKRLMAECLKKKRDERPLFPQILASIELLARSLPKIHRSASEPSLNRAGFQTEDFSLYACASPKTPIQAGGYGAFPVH
The assay can be described thus: TR-FRET kinase assay, MEK1 (K97R) substrate. It counts as biochemical.

In the next assay the target is EGFR (Homo sapiens, UniProt P00533). As to the kind of experiment: biochemical kinase assay (details not told). The text has this:
biochemical kinase assay (details not told) on EGFR | Biochemical activity of compound C against WT B‐RAF, B‐RAF^V600E, C‐RAF, and EGFR

Setting [3] is: read-out: BGB-283 IC50 (nM) / 1 h.
[4] abbreviates: 1 mM ATP, 1 h pre-incubation, room temperature, time-dependent inhibition (6 h and 24 h pre-incubation also tested), read-out: Compound C IC50 (nM) / 1 h.

Where two headings read alike, the source gives them in different places.

T2 sequence (P04049 whole entry): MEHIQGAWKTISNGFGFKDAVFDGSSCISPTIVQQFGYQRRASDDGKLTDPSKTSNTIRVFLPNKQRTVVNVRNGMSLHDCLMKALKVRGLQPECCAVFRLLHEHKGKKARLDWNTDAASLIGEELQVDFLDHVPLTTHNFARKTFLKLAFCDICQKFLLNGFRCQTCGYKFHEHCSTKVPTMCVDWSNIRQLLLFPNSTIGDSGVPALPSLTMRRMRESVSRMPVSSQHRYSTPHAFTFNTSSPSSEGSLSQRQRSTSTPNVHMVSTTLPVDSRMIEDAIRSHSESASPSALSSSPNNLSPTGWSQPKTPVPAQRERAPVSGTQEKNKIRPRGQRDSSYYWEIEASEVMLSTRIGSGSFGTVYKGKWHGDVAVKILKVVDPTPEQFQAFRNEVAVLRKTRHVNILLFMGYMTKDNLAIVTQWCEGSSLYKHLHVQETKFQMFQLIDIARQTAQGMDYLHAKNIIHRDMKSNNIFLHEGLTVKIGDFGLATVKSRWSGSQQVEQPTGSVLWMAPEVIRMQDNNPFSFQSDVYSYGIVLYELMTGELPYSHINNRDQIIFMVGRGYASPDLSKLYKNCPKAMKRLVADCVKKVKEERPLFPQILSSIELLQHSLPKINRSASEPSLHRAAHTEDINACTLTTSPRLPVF
T1 sequence (P15056 2-766 V600E): as the sequence (P15056 2-766) above, with V599E counted along it
Chain of EGFR (P00533 25-1210): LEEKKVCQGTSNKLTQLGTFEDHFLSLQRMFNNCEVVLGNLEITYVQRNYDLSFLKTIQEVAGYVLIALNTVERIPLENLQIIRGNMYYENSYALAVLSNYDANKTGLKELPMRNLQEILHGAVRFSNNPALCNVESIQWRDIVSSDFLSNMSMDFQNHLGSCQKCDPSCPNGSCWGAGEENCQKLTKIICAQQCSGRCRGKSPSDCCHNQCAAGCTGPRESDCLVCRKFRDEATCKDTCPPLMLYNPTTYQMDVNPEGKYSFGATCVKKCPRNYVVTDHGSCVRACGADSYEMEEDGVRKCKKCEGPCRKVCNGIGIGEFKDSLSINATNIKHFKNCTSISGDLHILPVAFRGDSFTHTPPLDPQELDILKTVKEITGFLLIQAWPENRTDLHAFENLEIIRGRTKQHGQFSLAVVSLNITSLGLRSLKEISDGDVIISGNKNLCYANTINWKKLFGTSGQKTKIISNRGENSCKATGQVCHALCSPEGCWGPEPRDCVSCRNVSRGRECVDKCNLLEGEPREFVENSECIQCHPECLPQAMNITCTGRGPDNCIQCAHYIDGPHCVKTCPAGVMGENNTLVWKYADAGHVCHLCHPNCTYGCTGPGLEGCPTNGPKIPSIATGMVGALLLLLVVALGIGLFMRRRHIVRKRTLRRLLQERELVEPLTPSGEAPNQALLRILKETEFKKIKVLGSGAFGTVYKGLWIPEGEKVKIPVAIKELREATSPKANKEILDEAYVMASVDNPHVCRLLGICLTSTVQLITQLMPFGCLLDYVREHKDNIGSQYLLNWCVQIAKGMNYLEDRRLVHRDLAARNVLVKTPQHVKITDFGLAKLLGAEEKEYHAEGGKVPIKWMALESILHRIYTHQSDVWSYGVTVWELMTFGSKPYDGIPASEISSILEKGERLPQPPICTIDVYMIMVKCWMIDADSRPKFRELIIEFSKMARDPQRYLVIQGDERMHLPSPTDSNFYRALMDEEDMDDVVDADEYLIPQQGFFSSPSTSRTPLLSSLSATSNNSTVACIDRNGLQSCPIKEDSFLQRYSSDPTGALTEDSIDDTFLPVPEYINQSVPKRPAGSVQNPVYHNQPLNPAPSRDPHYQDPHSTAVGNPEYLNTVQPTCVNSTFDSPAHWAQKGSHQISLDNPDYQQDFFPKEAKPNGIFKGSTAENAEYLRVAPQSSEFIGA

With `O=C1CCc2c(Oc3ccc4c(c3)[C@@H]3[C@H](O4)[C@H]3c3nc4ccc(C(F)(F)F)cc4[nH]3)ccnc2N1` [BGB‐283], the IC50 on WT B‐RAF [1] (setting [3]) amounted to 49 nM; at WT C‐RAF (setting [3]) it was 122 nM; on WT B‐RAF [2] (setting [3]), 2310 nM.

Consider `c1cc(-c2cnn3cc(-c4ccc(OCCN5CCCCC5)cc4)cnc23)ccn1` [compound C], for which the IC50 stood at 1.6 nM on WT B‐RAF [1] (setting [4]), 2.4 nM at WT C‐RAF (setting [4]), 24 nM on WT B‐RAF [2] (setting [4]) and 1270 nM at EGFR.

These data come from publication PMC7400788, “RAF dimer inhibition enhances the antitumor activity of MEK inhibitors in K‐RAS mutant tumors” (Molecular Oncology, 2020).
